{"source": "patent US20090209633A1", "about": "“Treatment of Pain With Resiniferatoxin and Related Analogs” (priority 2006, published 2009)", "key": {"native TRPV1": {"molecular_target": "T1, native TRPV1 (Rattus norvegicus, UniProt O35433)", "T1 construct": "RTX-induced membrane currents on native TRPV1 in embryonic DRG neurons grown in culture; endogenous in cells; host or cells: primary rat E18 DRG neurons", "T1 sequence (O35433 whole entry)": "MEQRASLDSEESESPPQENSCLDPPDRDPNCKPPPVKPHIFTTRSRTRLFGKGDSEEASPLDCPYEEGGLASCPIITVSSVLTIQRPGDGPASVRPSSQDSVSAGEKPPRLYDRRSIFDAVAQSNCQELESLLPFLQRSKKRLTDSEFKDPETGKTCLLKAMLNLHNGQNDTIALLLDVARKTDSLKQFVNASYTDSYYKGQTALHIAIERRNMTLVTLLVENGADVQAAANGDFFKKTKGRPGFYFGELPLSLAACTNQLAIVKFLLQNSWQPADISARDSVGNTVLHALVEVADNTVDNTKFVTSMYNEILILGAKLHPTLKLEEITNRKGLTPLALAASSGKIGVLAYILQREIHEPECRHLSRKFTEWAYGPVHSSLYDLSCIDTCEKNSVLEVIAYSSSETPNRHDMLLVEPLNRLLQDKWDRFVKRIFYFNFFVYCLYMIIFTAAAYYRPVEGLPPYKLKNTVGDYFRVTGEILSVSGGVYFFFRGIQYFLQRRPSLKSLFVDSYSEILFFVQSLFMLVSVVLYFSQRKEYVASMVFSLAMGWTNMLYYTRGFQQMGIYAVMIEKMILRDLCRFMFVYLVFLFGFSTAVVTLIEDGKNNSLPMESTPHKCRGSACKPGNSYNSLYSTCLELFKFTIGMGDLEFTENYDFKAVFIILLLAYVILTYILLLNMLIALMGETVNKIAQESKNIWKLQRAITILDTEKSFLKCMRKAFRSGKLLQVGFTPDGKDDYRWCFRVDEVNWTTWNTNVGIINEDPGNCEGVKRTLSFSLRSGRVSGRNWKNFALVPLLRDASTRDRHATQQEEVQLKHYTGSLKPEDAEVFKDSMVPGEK", "experiment": "Whole-cell currents in cultured embryonic DRG neurons (patch clamp)", "assay_type": "cell-based", "details": "capsazepine 10 μM", "protocol": "(§1) Electrophysiology. Whole-cell and single-channel currents were recorded from rat DRG neurons in culture and from Xenopus laevis oocytes injected with rat TRPV1 cRNA. Animals were cared for according to the standards of the National Institutes of Health (NIH). All animal use protocols were approved by Southern Illinois University School of Medicine Animal Care Committee.\nPrimary DRG neuronal cultures were prepared from embryonic day 18 (E18) rat embryos. Adult pregnant rats were killed with an overdose of isoflurane. DRG were dissected and the cells were dissociated by triturating with a fire-polished glass pipette. Cells were cultured in Neurobasal medium (Life Technologies, Buffalo, N.Y., USA), supplemented with 10% fetal bovine serum (FBS), and grown on poly-D-lysine-coated glass coverslips. Cells were used from 5 to 15 days after plating. Small diameter (<30 μm) rounded neurons were selected for patch-clamp experiments. […] The Giga-seal patch-clamp technique was used to record whole-cell currents. For perforated-patch recordings, the bath solution contained (mM): sodium gluconate 140, KCl 2.5, Hepes 10, MgCl2 1 and ethylene glycol bis(2-aminoethyl ether)-N,N,N′N′-tetraacetic acid (EGTA) 1.5 (pH adjusted to 7.35 with NaOH), and the pipette solution contained (mM): sodium gluconate 130, NaCl 10, KCl 2.5, Hepes 10, MgCl2 1, EGTA 1.5 and 240 μg/ml^−1 amphotericin B (pH adjusted to 7.35 with NaOH). For current-clamp experiments the pipette solution contained (mM): potassium gluconate 130, NaCl 10, MgCl2 1, EGTA 0.2, K2ATP 1 and Hepes 10; pH adjusted to 7.35 with NaOH. Extracellular solution for current- and voltage-clamp experiments contained (mM): NaCl 140, KCl 4, MgCl2 1 and Hepes 10; pH adjusted to 7.35 with NaOH. Currents were recorded using a WPC 100 patch-clamp amplifier (E.S.F. Electronic, Goettingan, Germany). Data were filtered at 10 kHz, digitized (VR-10B, Instrutech Corp., Great Neck, N.Y., USA) and stored on videotapes or directly stored in the computer using a LabView interface. For analysis of whole-cell currents, data were filtered at 1 kHz (−3 db frequency with an 8-pole low-pass Bessel filter, Warner Instruments, LPF-8) and digitized at 2 kHz.\nThis example tests the activation of whole-cell current in DRG neurons by RTX. We determined the properties of RTX-induced membrane currents on native TRPV1 in embryonic DRG neurons grown in culture. […] Protons were not used to elicit currents because of the presence of acid-sensitive ion channels in these neurons."}, "rat TRPV1": {"molecular_target": "T2, rat TRPV1 (Rattus norvegicus, UniProt O35433)", "T2 construct": "expressed in transfected cells; host or cells: Xenopus laevis oocytes injected with TRPV1 cRNA", "T2 sequence (O35433 whole entry)": "as above", "experiment": "Whole-cell currents in Xenopus laevis oocytes expressing TRPV1 (double-electrode voltage clamp)", "assay_type": "cell-based", "details": "ruthenium red 100 μM; RTX 10 nM repeated application", "protocol": "Rat TRPV1 dcRNA. Cloned rat TRPV1 was obtained from the Julius Lab at the University of California San Francisco. TRPV1 cRNA was obtained using standard techniques known to those of skill in the art.\nas §1\nOocytes were obtained by an abdominal incision after anaesthetizing the frog by immersion in a 0.05% solution of 3-aminobenzoic acid ethyl ester (MS222). Animals were killed by a subcutaneous injection of a 2% solution of MS222 according to NIH guidelines. One day after separating the oocytes from the follicular layer, 50-70 nl TRPV1 cRNA was injected using a Drummond Nanoject (Drummond Scientific Co., Broomall, Pa., USA). Oocytes were used for recording from 3 days after the injection. Double-electrode voltage clamp was performed using a Warner amplifier (Warner Instruments, Hamden, Conn., USA). Data were digitized and stored on videotape or directly stored on the computer using a LabView interface (National Instruments, Austin, Tex., USA). Experiments were performed at 21-23° C. Oocytes were placed in a Perspex chamber superfused (5-10 ml min^−1) with Ca^2+-free Ringer solution containing (mM): NaCl 100, KCl 2.5 and Hepes 5; pH adjusted to 7.35 with NaOH. Current-voltage relationships were measured using 1-s voltage ramps from −80 to +80 mV.\nThis example tests the activation of whole-cell currents in oocytes by RTX. Whole-cell currents were recorded from oocytes heterologously expressing TRPV1. […] Agonist-induced currents are shown after subtracting the leak current in the absence of the agonist. […] In order to quantify this, we calculated the ratio of outward and inward currents. […] PKC activation increases sensitivity as well as TRPV1 translocation. […] (Szallasi et al. 1990b; Caterina et al. 1997; Marshall et al. 2003.)"}}}
{"smiles": "Oc1cc2c(cc1O)CN(C(=S)NCCc1ccc(Cl)cc1)CCC2", "note": "[capsazepine]", "values": [{"measurement": "block of current induced by capsaicin (1 μM) and RTX (10 nM)", "setting": "native TRPV1", "result": "completely blocked"}, {"measurement": "rate of block induced by capsazepine", "setting": "native TRPV1; RTX-induced (10 nM) currents", "result": "612.3 ± 219", "unit": "s"}, {"measurement": "rate of block induced by capsazepine", "setting": "native TRPV1; capsaicin-induced (1 μM) currents", "result": "18.4 ± 2.8", "unit": "s"}]}
{"smiles": "N.N.N.N.N.N.N.N.N.N.N.N.N.N.[Cl-].[Cl-].[Cl-].[Cl-].[Cl-].[Cl-].[O-2].[O-2].[Ru+3].[Ru+3].[Ru+4]", "note": "[ruthenium red, reference compound]", "values": [{"measurement": "block of RTX-induced current", "setting": "rat TRPV1", "result": "readily blocked"}]}
